TGI and GI50 data for 29 molecules are collected here from PubChem BioAssay (NCI).

Common to all, as to assay: NCI tumour cell line growth inhibition, 48 h
Assay [1] deals with ACHN renal.
Assay [2] has as its system K-562 leukemia.
Assay [3] relates to HCT-15 colon.
In assay [4] the test system is MCF7 breast.
Assay [5] concerns SF-295 CNS.
The subject of assay [6] is COLO 205 colon.
Assay [7] relates to A498 renal.
In assay [8] the test system is PC-3 prostate.
For assay [9], the system named is RPMI-8226 leukemia.
Assay [10] has as its system UACC-257 melanoma.

“And” between values parts separate entries of the source, which are not always exact repeats. Identical values can stand only once.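 Results reflect a 48-hour exposure of cells in 96-well plates to compound at five concentrations. GI50 is the concentration that inhibits growth by half. TGI: total growth inhibition.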 A value given as a limit tells only on which side of the number the result lay.

Regarding `CC1=NN=C(C)C1N=Nc1ccc2nc(C)[nH]c2c1`, the TGI in assay [1] is more than 76.8 µM; in [2] it was more than 100 µM; in [3], more than 100 µM; in assay [4] it was more than 100 µM; in assay [5], more than 75.1 µM; in assay [6], more than 100 µM. The TGI in assay [7] was 38.2 µM; in assay [8] it was more than 100 µM; in assay [9], more than 100 µM; in assay [10] it was more than 100 µM.

Regarding `CCOC(=O)C(NC(=O)OCc1ccccc1)C(=O)O` (stereo unspecified), the TGI in assay [1], in assay [2], in [3], in assay [4], in [5] and in assay [6] was more than 100 µM in each case. In addition, the TGI in assay [7], in assay [8], in assay [9] and in [10] was more than 100 µM each time.

`O=C1CN(c2ccccc2)Cc2nc(Cl)ccc2N1`: the TGI in assay [1], in assay [2], in assay [3], in assay [4], in assay [5] and in [6] was more than 100 µM each time. Also, the TGI in [8], in assay [9] and in [10] was more than 100 µM each time.

As to `Brc1ccc(C2C3CSc4ccccc4C3=NN2c2ccccc2)cc1` (stereo unspecified), the TGI in assay [2], in assay [3], in [4], in assay [6], in assay [7] and in assay [8] was more than 100 µM each time. The values for the TGI in [9] and in assay [10] were more than 100 µM and 95.6 µM, respectively.

For the molecule `CC(C)=CCCC(C)(OC1OC(CO)C(O)C(O)C1O)C1CCC2(C)C1C(O)CC1C3(C)CCC(O)C(C)(C)C3C(OC3OC(CO)C(O)C(O)C3OC3OC(C)C(O)C(O)C3O)CC12C` (stereo unspecified) (tested in a mixture with another compound), the TGI in assay [1], in assay [2], in assay [3], in [4], in assay [5] and in [6] was more than 75 µM each time. For the same molecule, the TGI in assay [7], in assay [8], in assay [9] and in assay [10] was more than 75 µM in each case.

On to `CSc1nc(=S)[nH]c2c1c(C)nn2-c1ccccc1`, for which the TGI in assay [1] was 57.5 µM; in [2] it was 51.9 µM; in [3], more than 100 µM; in assay [4] it was 46.1 µM; in [5], 84.4 µM; in [6], 56.5 µM. For the same molecule, the TGI came out at 80.6 µM in [7], 68.3 µM in assay [8], 47.7 µM in assay [9] and 51.9 µM in [10].

As to `CSc1ncnc2c1cnn2Cc1cnnn1COCC(O)CO` (stereo unspecified), the TGI in [1], in assay [2], in assay [3], in [4], in [5] and in assay [6] was more than 100 µM throughout. Further, the TGI in assay [7], in [8], in assay [9] and in assay [10] was more than 100 µM each time.

For the molecule `CC1=CC(=O)CC2(C)CCC(C(C)CC(=O)CC(C)C)CC12OO` (stereo unspecified), the TGI is 30.8 µM and 31.4 µM in [1]; 75 µM and 31.9 µM in assay [2]; 30.1 µM and > 100 µM in assay [3]; 31.9 µM and 31.7 µM in assay [4]; 31 µM and 30 µM in [5]; 27.8 µM and 34.8 µM in [6]. In addition, the TGI in assay [7] was 31.5 µM and 49.4 µM; in assay [8], 29.1 µM and 27.3 µM; in [9] it was 76.5 µM and 46.1 µM; in assay [10], 31.5 µM and 33 µM. In addition, the GI50 in [3] was 16.5 µM and 35.3 µM.

Take `O=C1NC2NC3NC(=O)NC3NC2N1` (stereo unspecified): the TGI in assay [1], in [2], in [4], in assay [5], in assay [6] and in [7] was more than 100 µM throughout. Also, the TGI in assay [8], in [9] and in assay [10] was more than 100 µM throughout.

With `CC(C)/C=C1\CCC(CN(C)C)C1=O` (stereo unspecified), the TGI was 12.5 µM in assay [1]; 7.85 µM in [2]; 4.68 µM in assay [3]; 1.8 µM in [4]; 31.2 µM in assay [5]; 1.41 µM in [6]. Also, the TGI in assay [7] came out at 16.7 µM; in assay [8] it was 14.5 µM; in assay [9], 2.36 µM; in assay [10], 10.8 µM.

`COC(=O)C1(NC(=O)C(Cc2ccccc2)N(C(=O)OC(C)(C)C)C(=O)OC(C)(C)C)CCCC1` (stereo unspecified): the TGI in assay [1] is more than 10 µM; in assay [2], more than 100 µM; in assay [3], more than 100 µM; in assay [4], 64.6 µM; in assay [6], more than 100 µM; in assay [7], more than 100 µM. The TGI in assay [8] was more than 100 µM; in assay [9], 47.1 µM.

For `C1CNOCCCONCCCNOCCCONC1`, the TGI in assay [1], in assay [2], in assay [3], in assay [4], in assay [5] and in assay [6] was more than 100 µM in each case. For the same molecule, the TGI in assay [7] was more than 100 µM; in [8] it was 86 µM; in [10] it was more than 100 µM.

Take `Cn1c(=O)c2[nH]c(N=O)nc2n(C)c1=O`: the TGI in assay [2], in assay [3], in assay [4], in [5], in [6] and in assay [7] was more than 100 µM throughout. For the same molecule, the TGI in assay [8], in [9] and in [10] was more than 100 µM throughout.

Regarding `COC(=O)c1ccc2c(c1)CC1(C2)Cc2cc3c(cc2C1)CCC3`, the TGI in assay [1], in [2], in [3], in assay [4], in [5] and in [7] was more than 100 µM throughout. The TGI in assay [8], in [9] and in assay [10] was more than 100 µM in each case.

Regarding `CC(C)[C@@H]1CC[C@@H](C)C[C@H]1OC(=O)c1c2n(c3ccccc13)C[C@H]1OC(C)(C)O[C@@H]21`, the TGI in [1], in [2], in assay [3], in [4], in assay [5] and in assay [6] was more than 100 µM each time. Besides, the TGI in assay [8], in [9] and in [10] was more than 100 µM throughout.

As for `O=C1Oc2ccccc2C1C/C(=N\Nc1ccccc1)c1ccccc1O` (stereo unspecified), the TGI was more than 100 µM in [1]; more than 100 µM in assay [3]; more than 100 µM in assay [4]; more than 100 µM in assay [5]; 32.8 µM in assay [6]; more than 100 µM in [7]. Also, the TGI is more than 100 µM in assay [8], 72.3 µM in assay [9] and 90.5 µM in assay [10].

For the molecule `CC(C)Oc1c(C2(c3ccccc3)SCCCS2)c(=O)c1=O`, the TGI in assay [1], in assay [3], in assay [4], in assay [5], in assay [6] and in assay [7] was more than 100 µM each time. The TGI in assay [8] and in assay [10] was more than 100 µM throughout.

With `CCC(NC(C)c1ccccc1)C(=O)c1ccc(OCc2ccccc2)c(OCc2ccccc2)c1` (stereo unspecified), the TGI in assay [1], in assay [2], in assay [3], in assay [4], in assay [5] and in assay [6] was more than 100 µM in each case. The TGI in [8] and in [9] was more than 100 µM each time.

On to `CC(=O)OI1NC(=O)c2ccccc21`, for which the TGI in assay [1], in assay [2], in [3], in assay [4], in assay [5] and in [6] was more than 100 µM each time. The TGI in assay [7], in [8] and in assay [9] was more than 100 µM each time.

Regarding `COc1ccc(/C=c2\c(=O)[nH]c3nc4ccccc4c(=O)n23)cc1`, the TGI in assay [1], in assay [3], in [4], in assay [5], in assay [6] and in assay [8] was more than 100 µM in each case. The TGI in [9] and in assay [10] was more than 100 µM each time.

Turning to `O[C@]12C=C(c3nccc4c3[nH]c3ccccc34)[C@@H]3CCN(CCCC/C=C\CC1)C[C@@]31CC3/C=C\CCCCN3[C@H]12` (stereo partly specified), the TGI in [1] is 1.05 µM; in assay [2], 2.84 µM; in assay [3] it was 1.02 µM; in assay [4], 1.83 µM; in [5] it was 2.67 µM; in assay [6], 1.13 µM. The results for the TGI in assay [7], in assay [8] and in assay [10] were 2.83 µM, 12 µM and 3.39 µM, respectively.

As to `C=CCCC1(O)C(O)C(CO)O[C@H](O[C@@]2(CO)OC(CO)C(O)C2O)C1O` (stereo partly specified), the TGI in assay [1], in [2], in assay [3], in assay [4], in assay [5] and in assay [6] was more than 100 µM in each case. For the same molecule, the TGI in assay [8], in assay [9] and in assay [10] was more than 100 µM throughout.

Consider `CCOC(=O)N/N=C(/N)c1cccc(Br)c1`, for which the TGI in assay [1], in assay [2], in assay [3], in assay [4], in assay [5] and in assay [6] was more than 100 µM in each case. In addition, the TGI in assay [8] and in assay [10] was more than 100 µM throughout.

For `COC(=O)C(CC(C)C)NC(=O)C(NC(=O)c1ccc(-c2ccc(Cl)cc2Cl)o1)C(C)C` (stereo unspecified), the TGI in assay [1] turned out to be 85.6 µM; in assay [2], 53.1 µM; in assay [3], 75.6 µM; in assay [4] it was 44.7 µM; in assay [5], 52.6 µM; in assay [6], 52.2 µM. The TGI was more than 100 µM in [8], 40.3 µM in [9] and 64.9 µM in assay [10].

With `O=C(CNc1ccccn1)Nn1cnc2ccc(S(=O)(=O)Nc3ccccn3)cc2c1=O`, the TGI in assay [1], in assay [2], in assay [3], in assay [4], in assay [5] and in [6] was more than 100 µM in each case. Besides, the TGI in assay [8], in assay [9] and in assay [10] was more than 100 µM each time.

`CCCCOCCOCCOC1=CC(=O)c2c(O)ccc(O)c2C1=O`: the TGI was 3.2 µM in assay [1]; 6.25 µM in assay [2]; 4.01 µM in assay [4]; 3.06 µM in assay [5]; 2.74 µM in assay [6]; 7.53 µM in assay [8]. In addition, the TGI is more than 10 µM in [9] and 2.97 µM in [10].

Consider `COc1ccc(C2=Nc3c(nc(OC)[nH]c3=O)NC(c3ccccc3)C2)cc1` (stereo unspecified), for which the TGI in assay [1] was 83.5 µM; in assay [2], 73.1 µM; in assay [4], 68.2 µM; in assay [5], more than 100 µM; in assay [6], 50.3 µM; in [7], more than 100 µM. Also, the TGI was more than 100 µM in [8], 91.5 µM in [9] and more than 100 µM in [10].

Turning to `CC1(C)OC(=O)C(C)(C)C(=O)O1`, the TGI in assay [1], in [2], in assay [3], in assay [4], in assay [5] and in [6] was more than 100 µM each time. Also, the TGI in assay [8] and in assay [10] was more than 100 µM each time.

Regarding `O=C1N=C2SC=C(NC(=S)Nc3ccccc3)N2NC12c1ccccc1-c1ccccc12`, the TGI in assay [1], in [2], in assay [3], in assay [4], in assay [5] and in [6] was more than 10 µM in each case. The TGI in assay [8], in assay [9] and in assay [10] was more than 10 µM each time.
